Experimental findings from ChEMBL document CHEMBL4368926, “Arylpyridines, arylpyrimidines and related compounds as potential modulator agents of the VEGF, hTERT and c-Myc oncogenes” (Bioorg Med Chem, 2019) are described below.

Data set [1] in a line: Selectivity index, ratio of IC50 for HEK293 cells to IC50 for human MCF7 cells. Particulars: HEK293 cells versus MCF7 cells.
Data set [2] has as its system HT-29. As to the kind of experiment: Down-regulation of c-Myc protein expression in human HT-29 cells assessed as c-Myc protein level at 10 uM after 48 hrs by ELISA (reference value: 100%). The format is functional.
For data set [3], the system named is HT-29. As to the kind of experiment: Cytotoxicity against human HT-29 cells assessed as decrease in cell viability after 2 days by MTT assay. Particulars: HT-29, 48 h. The format is functional, cell-based. For orientation: Formazan colour is commonly taken as a measure of viable cells.
In data set [4] the test system is HT-29. Put plainly: Down-regulation of VEGFRA mRNA expression in human HT-29 cells assessed as VEGFRA mRNA level at 10 uM after 48 hrs by RT-qPCR analysis (reference value: 100%). The format is functional. (In qPCR the cycle at which signal appears reflects the starting amount.)
A further data set concerns HEK293. Put plainly: Cytotoxicity against HEK293 cells assessed as decrease in cell viability after 2 days by MTT assay. The format is ADME, cell-based. The settings on record: Homo sapiens, HEK293, 48 h.
Data set [5] can be described thus: Selectivity index, ratio of IC50 for HEK293 cells to IC50 for human HT-29 cells. The format is toxicity. The settings on record: HEK293 cells versus HT-29 cells, read-out: Ratio IC50.
In data set [6] the test system is HT-29. Put plainly: Down-regulation of VEGFA protein expression in human HT-29 cells assessed as VEGFA protein level at 10 uM after 48 hrs by ELISA (reference value: 100%). The format is functional.
Data set [7] concerns HT-29. Put plainly: Down-regulation of hTERT mRNA expression in human HT-29 cells assessed as hTERT mRNA level at 10 uM after 48 hrs by RT-qPCR analysis (reference value: 100%). The format is functional.
The subject of another data set is MCF7. Put plainly: Cytotoxicity against human MCF7 cells assessed as decrease in cell viability after 2 days by MTT assay. The settings on record: MCF7, 48 h. The format is functional, cell-based.
For data set [8], the system named is HT-29. Put plainly: Down-regulation of c-Myc mRNA expression in human HT-29 cells assessed as c-Myc mRNA level at 10 uM after 48 hrs by RT-qPCR analysis (reference value: 100%). The format is functional.
Data set [9] deals with HT-29. As to the kind of experiment: Down-regulation of VEGFRA mRNA expression in human HT-29 cells assessed as VEGFRA mRNA level at 240 uM after 48 hrs by RT-qPCR analysis (reference value: 100%). The format is functional.
The subject of data set [10] is HT-29. As to the kind of experiment: Down-regulation of c-Myc protein expression in human HT-29 cells assessed as c-Myc protein level at 240 uM after 48 hrs by ELISA (reference value: 100%). The format is functional.
For data set [11], the system named is HT-29. Put plainly: Down-regulation of c-Myc mRNA expression in human HT-29 cells assessed as c-Myc mRNA level at 240 uM after 48 hrs by RT-qPCR analysis (reference value: 100%). The format is functional.
Data set [12] deals with HT-29. As to the kind of experiment: Down-regulation of VEGFA protein expression in human HT-29 cells assessed as VEGFA protein level at 240 uM after 48 hrs by ELISA (reference value: 100%). The format is functional. A general note: In an ELISA, binding on a coated surface is turned into a signal by an enzyme label.
The test system of data set [13] is HT-29. As to the kind of experiment: Down-regulation of hTERT mRNA expression in human HT-29 cells assessed as hTERT mRNA level at 240 uM after 48 hrs by RT-qPCR analysis (reference value: 100%). The format is functional.
Data set [14] relates to HT-29. Put plainly: Down-regulation of c-Myc mRNA expression in human HT-29 cells assessed as c-Myc mRNA level at 145 uM after 48 hrs by RT-qPCR analysis (reference value: 100%). The format is functional.
Data set [15] relates to HT-29. As to the kind of experiment: Down-regulation of VEGFA protein expression in human HT-29 cells assessed as VEGFA protein level at 145 uM after 48 hrs by ELISA (reference value: 100%). The format is functional.
In data set [16] the test system is HT-29. As to the kind of experiment: Down-regulation of hTERT mRNA expression in human HT-29 cells assessed as hTERT mRNA level at 145 uM after 48 hrs by RT-qPCR analysis (reference value: 100%). The format is functional.
Data set [17] concerns HT-29. As to the kind of experiment: Down-regulation of c-Myc protein expression in human HT-29 cells assessed as c-Myc protein level at 145 uM after 48 hrs by ELISA (reference value: 100%). The format is functional.
The subject of data set [18] is HT-29. As to the kind of experiment: Down-regulation of VEGFRA mRNA expression in human HT-29 cells assessed as VEGFRA mRNA level at 145 uM after 48 hrs by RT-qPCR analysis (reference value: 100%). The format is functional.

One may read the IC50 as the concentration that inhibits the measured activity by half. For the molecule `COc1cccc(N2CCCCC2)c1`, the selectivity ratio in data set [1] was 3; in data set [5], 20. For the same molecule, the Activity is on record as 100% with HT-29 [2]; 44% in the data set with HT-29 [4]; 42% in the data set with HT-29 [6]; 30% with HT-29 [7]; 63% in the data set with HT-29 [8]. In addition, the IC50 in the data set on HT-29 [3] is 26 µM; with HEK293 it was over 400 µM; in the data set on MCF7, 160 µM.

Consider `c1ccc(-c2cccnc2)cc1`, for which the Activity in the data set on HT-29 [9] is listed as 34%; with HT-29 [10], 60%; with HT-29 [11], 35%; in the data set with HT-29 [12] it was 42%; in the data set on HT-29 [13], 56%. Besides, the selectivity ratio in data set [1] and in data set [5] was under 1 in each case. In addition, the concentration for half-maximal inhibition (IC50) with HT-29 [3] was over 400 µM; in the data set on HEK293, 321 µM; in the data set on MCF7, over 400 µM.

Consider `Oc1ccccc1-c1cccnc1`, for which the selectivity ratio turned out to be 7 in [1] and 2 in data set [5]. The Activity with HT-29 [14] worked out at 39%; with HT-29 [15] it was 96%; with HT-29 [16] it was 44%; with HT-29 [17], 100%; with HT-29 [18] it was 18%. The IC50 with HT-29 [3] is 115 µM; in the data set on HEK293, 294 µM; in the data set on MCF7, 41 µM.
